Values of other authors, collected in US7501533B2, “Process for preparing lysophosphatidylcholine” (Chem SpA, priority 2004, dated 2009).

Tested on: rats
Settings: from Sax and others, Dangerous Properties of Industrial Materials, edition VII

| SMILES | LD50 (acute oral toxicity) |
| --- | --- |
| CCC[CH2][Sn](=[O])[CH2]CCC [dibutyltin oxide] | LD50 = 44.9 mg/kg |
| CCCCCCC[CH2][Sn](=[O])[CH2]CCCCCCC [dioctyltin oxide] | LD50 = 2500 mg/kg |
